Measured values published in patent US20210308211A1, “METHOD OF TREATING VIRAL INFECTIONS” (priority 2020, published 2021).
Non-standard residues stand in square brackets, D forms with d. Residues, ends and D or L forms follow the SMILES beside them. pS = N[C@@H](COP(=O)(O)O)C(=O)O

Assays:
HSC70 protein = target: T1, HSC70 protein (Bos taurus, UniProt P19120); assay: BIAcore binding of peptides to immobilized HSC70; design: species or system bovine
T1 construct: purchased Stressgen
Protocol: BIAcore 3000 system (Biacore AB) was used to evaluate the binding of P140 peptides to HSC70 protein (Page et al., 2009, and 2011). Sensor chip CM5, surfactant P20, amine coupling kit containing N-hydroxysuccinimide (NHS) and N-ethyl-N′-dimethylaminopropyl carbodiimide (EDC), 2-(2-pyridinyldithio)ethaneamine (PDEA) and ethanolamine were from Biacore AB. Biosensor assays were performed with HBS-EP buffer as running buffer (10 mM HEPES, 150 mM NaCl, 3 mM EDTA, 0.005% surfactant P20, pH 7.4). The compounds were diluted in the running buffer. The sensor chip surface was regenerated after each experiment by injecting 10 μL of 10 mM HCl. Recombinant bovine HSC70 (Stressgen) was immobilized on flow cells of a CM5 sensor chip through its thiol groups using 35 μL PDEA in 50 mM borate buffer, pH 8.3 on the NHS/EDC-activated matrix. Then, 35 μL of HSC70 (100 μg/mL in formate buffer, pH 4.3) were injected until a response of 13,000 response units (RU) corresponding to 13 ng/mm^2 of HSC70 was immobilized. Twenty μL of a 50 mM cysteine/1 M NaCl solution was used to saturate unoccupied sites on the chip. The direct binding measurement of P140 peptides to HSC70 was carried out at 25° C. with a constant flow rate of 20 μL/min. P140 peptide and analogues were injected in the flux at different concentrations for 3 min, followed by a dissociation phase of 3 min. The kinetic parameters were calculated using the BIAeval 3.1 software on a personal computer. Analysis was performed using the simple 1:1 Langmuir binding model. The specific binding profiles were obtained after subtracting the response signal from the control empty channel and from blank-buffer injection. The fitting to each model was judged by the χ^2 value and randomness of residue distribution compared to the theoretical model.

Raji cells = assay: Cellular uptake of fluorescent P140 in Raji cells (flow cytometry); type: cell-based, human; conditions: fluorescent peptide in 10% trehalose compared with 5.4% mannitol
Description: FIG. 8. Cellular uptake of fluorescent P140 peptide in 5.4% mannitol or 10% trehalose in MRL/lpr B cells and Raji cells as visualized by flow cytometry. B cells were from 12-14 week-old MRL/lpr mice (primary cells); Raji cells are an established cell line derived in 1963 from B-lymphocyte of a patient with Burkitt's lymphoma.
For P140 peptide activity, HSC70 binding and endocytosis appear to be important. It is believed that endocytosis must occur through the clathrin route. This implies that peptide+excipient should have a size in the range of 30 to 500 nm in diameter. For example P140+mannitol are in the 100 nm region whereas P140+trehalose are below 10 nm and therefore not effective binding to HSC70. […] B cells were from 12-14 week-old MRL/lpr mice (primary cells); Raji cells are an established cell line derived in 1963 from B-lymphocyte of a patient with Burkitt's lymphoma. […] The confocal images show the late endosomal compartment where P140 localizes before homing into lysosomes; DAPI identifies DNA.

[1] = system: peripheral T cells from lupus patients; conditions: cited from earlier work

T1 sequence (P19120 whole entry): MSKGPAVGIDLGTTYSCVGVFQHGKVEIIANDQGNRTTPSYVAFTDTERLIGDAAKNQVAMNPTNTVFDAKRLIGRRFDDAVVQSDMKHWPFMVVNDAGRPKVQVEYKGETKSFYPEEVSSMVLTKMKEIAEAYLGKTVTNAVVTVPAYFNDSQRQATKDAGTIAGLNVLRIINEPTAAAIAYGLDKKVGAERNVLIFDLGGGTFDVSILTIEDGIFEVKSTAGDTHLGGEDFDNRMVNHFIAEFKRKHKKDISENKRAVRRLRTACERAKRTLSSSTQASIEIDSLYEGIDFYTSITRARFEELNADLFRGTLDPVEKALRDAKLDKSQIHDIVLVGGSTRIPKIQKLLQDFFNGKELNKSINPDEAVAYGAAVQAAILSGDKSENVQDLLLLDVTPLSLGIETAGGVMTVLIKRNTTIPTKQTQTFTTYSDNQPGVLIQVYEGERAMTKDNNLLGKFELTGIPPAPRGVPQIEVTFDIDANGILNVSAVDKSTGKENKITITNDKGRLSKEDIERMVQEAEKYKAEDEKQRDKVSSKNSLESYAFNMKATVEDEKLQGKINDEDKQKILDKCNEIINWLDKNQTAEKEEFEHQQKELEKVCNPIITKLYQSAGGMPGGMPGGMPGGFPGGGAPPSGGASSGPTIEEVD

## CC[C@H](C)[C@H](NC(=O)[C@H](Cc1ccccc1)NC(=O)[C@H](C)NC(=O)[C@H](Cc1ccc(O)cc1)NC(=O)CNC(=O)[C@H](CCCNC(=N)N)NC(=O)[C@@H]1CCCN1C(=O)[C@H](CCCCN)NC(=O)CNC(=O)[C@H](COP(=O)(O)O)NC(=O)[C@H](CCCNC(=N)N)NC(=O)[C@H](CCCCN)NC(=O)[C@H](CO)NC(=O)[C@H](Cc1ccc(O)cc1)NC(=O)[C@@H](NC(=O)[C@H](CCSC)NC(=O)[C@H](Cc1c[nH]cn1)NC(=O)[C@@H](NC(=O)[C@@H](N)CCCNC(=N)N)[C@@H](C)CC)C(C)C)C(=O)N[C@@H](CCC(=O)O)C(=O)N[C@@H](Cc1ccc(O)cc1)C(=O)O [Compound P140] (H-RIHMVYSKR[pS]GKPRGYAFIEY-OH; N-terminus and C-terminus assumed)
HSC70 protein; 25° C., 1:1 Langmuir model
  Rmax (RU): 83.3 RU
HSC70 protein; 25° C., 1:1 Langmuir model, analyte 1.56-25 μM, read-out: ka
  kon: 450 M⁻¹ s⁻¹
HSC70 protein; P140 compared with P140 M(O)
  Affinity for HSC70, oxidized vs non-oxidized peptide (in words): not statistically different
HSC70 protein; peptide 1.56 μM
  Req (RU): 15.3 RU
HSC70 protein; peptide 3.12 μM
  Req (RU): 25.8 RU
HSC70 protein; peptide 6.25 μM
  Req (RU): 39.5 RU
HSC70 protein; peptide 12.5 μM
  Req (RU): 53.6 RU
HSC70 protein; peptide 25 μM
  Req (RU): 65.2 RU
  kobs: 0.0144 s⁻¹
Raji cells
  Cellular uptake (flow cytometry): Much less cellular uptake
[1]; ex vivo (Monneaux et al., 2005)
  Proliferation of peripheral T cells from lupus patients: does not induce proliferation
[1]; ex vivo, T cells from lupus patients (Monneaux et al., 2005)
  Secretion of regulatory cytokine IL-10 in cell cultures: high levels
